{"source": "patent US10947213B1", "about": "(Merck Patent GmbH, priority 2015, dated 2021)", "note": "Where a name gives a salt, the structure may show the parent alone.", "data": [{"biological_target": "T1, TLR7/NFKb HEK cells (Homo sapiens, UniProt Q9NYK1)", "T1 construct": "expressed in transfected cells; host or cells: HEK cells (TLR7/NFKb reporter line)", "T1 sequence (Q9NYK1 27-1049)": "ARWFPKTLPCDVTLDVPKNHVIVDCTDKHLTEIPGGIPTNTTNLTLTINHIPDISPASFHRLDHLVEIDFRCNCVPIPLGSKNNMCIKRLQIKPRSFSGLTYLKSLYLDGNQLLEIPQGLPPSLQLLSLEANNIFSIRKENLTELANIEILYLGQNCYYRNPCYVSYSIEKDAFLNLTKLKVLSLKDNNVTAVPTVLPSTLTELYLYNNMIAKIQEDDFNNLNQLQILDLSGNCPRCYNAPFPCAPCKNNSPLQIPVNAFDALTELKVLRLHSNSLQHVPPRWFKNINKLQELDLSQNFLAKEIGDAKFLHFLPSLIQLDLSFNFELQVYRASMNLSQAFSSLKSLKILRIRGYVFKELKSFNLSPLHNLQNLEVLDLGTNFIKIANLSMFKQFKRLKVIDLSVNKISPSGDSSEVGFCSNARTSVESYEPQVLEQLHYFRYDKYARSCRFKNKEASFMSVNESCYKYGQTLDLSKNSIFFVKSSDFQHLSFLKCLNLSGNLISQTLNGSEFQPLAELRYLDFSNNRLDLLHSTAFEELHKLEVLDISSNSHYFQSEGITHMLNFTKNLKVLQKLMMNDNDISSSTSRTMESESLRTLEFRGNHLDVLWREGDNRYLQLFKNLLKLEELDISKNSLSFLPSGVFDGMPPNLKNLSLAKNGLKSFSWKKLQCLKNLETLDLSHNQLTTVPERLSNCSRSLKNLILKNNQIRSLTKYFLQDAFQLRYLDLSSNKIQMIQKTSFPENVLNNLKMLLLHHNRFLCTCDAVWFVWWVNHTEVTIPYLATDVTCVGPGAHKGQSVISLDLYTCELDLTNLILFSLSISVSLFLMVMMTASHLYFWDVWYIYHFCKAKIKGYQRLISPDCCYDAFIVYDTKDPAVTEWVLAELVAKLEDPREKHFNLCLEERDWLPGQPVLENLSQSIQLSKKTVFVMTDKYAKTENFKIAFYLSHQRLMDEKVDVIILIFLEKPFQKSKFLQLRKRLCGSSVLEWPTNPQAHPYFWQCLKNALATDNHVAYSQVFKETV", "assay": "HEK Cell Assay (TLR7/NFKb reporter, Steady-Glo luciferase readout)", "assay_type": "cell-based", "conditions": "30 min compound preincubation, then R*48 agonist for 5 hours, read-out: Potency", "in_short": "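Steady-Glo luminescence after 5 h stimulation with R*48 agonist, following 30 min compound preincubation. Assay run in HEK cells carrying a TLR7/NFKb luciferase reporter, plated at 5000 cells/well and grown 24 h at 37° C (10% CO2) before treatment.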", "units": {"IC50": "nM"}, "values": [{"compound": "C[C@H]1C[C@@H](NC(=O)C2CCCN2C)CN(c2ccc(C#N)c3nccnc23)C1", "note": "(stereo partly drawn) [Compound 171, N-[(3R,5S)-1-(8-cyanoquinoxalin-5-yl)-5-methylpiperidin-3-yl]-1-methylpyrrolidine-2-carboxamide]", "IC50": "< 1000"}, {"compound": "CCC(C)C(=O)N[C@@H]1C[C@H](C)CN(c2ccc(C#N)c3nccnc23)C1", "note": "(single isomer, unassigned) [Compound 154]", "IC50": "< 1000"}, {"compound": "CC(C)[C@@H](O)C(=O)N[C@H]1CN(c2ccc(C#N)c3nccnc23)CC(C)(C)C1", "note": "[Compound 213, (2R)—N-[(3R)-1-(8-cyanoquinoxalin-5-yl)-5,5-dimethylpiperidin-3-yl]-2-hydroxy-3-methylbutanamide]", "IC50": "< 1000"}, {"compound": "CC(CN(C)C)NC(=O)C1CCN(c2ccc(C#N)c3ncccc23)CC1", "note": "(centres unmarked) [Compound 420, 1-(8-Cyano-quinolin-5-yl)-piperidine-4-carboxylic Acid (2-dimethylamino-1-methyl-ethyl)-amide]", "IC50": "< 1000"}, {"compound": "C[C@H]1C[C@@H](NC(=O)CC2CNC2)CN(c2ccc(C(F)F)c3ncccc23)C1", "note": "[Compound 312, 2-(azetidin-3-yl)-N-[(3R,5S)-1-[8-(difluoromethyl)quinolin-5-yl]-5-methylpiperidin-3-yl]acetamide]", "IC50": "1000 to 10000"}, {"compound": "C[C@H]1C[C@@H](NC(=O)Cc2cn(C)cn2)CN(c2ccc(C#N)c3nccnc23)C1", "note": "[Compound 132, N-[(3R,5S)-1-(8-cyanoquinoxalin-5-yl)-5-methylpiperidin-3-yl]-2-(1-methyl-1H-imidazol-4-yl)acetamide]", "IC50": "< 1000"}, {"compound": "CCC(C)CC(=O)N[C@@H]1C[C@H](C)CN(c2ccc(C#N)c3nccnc23)C1", "note": "(single isomer, unassigned) [Compound 151]", "IC50": "< 1000"}, {"compound": "CC(C(=O)N[C@@H]1C[C@H](C)CN(c2ccc(C(F)F)c3nccnc23)C1)N1CC(O)C1", "note": "(stereo partly drawn) [Compound 321, N-[(3R,5S)-1-[8-(difluoromethyl)quinoxalin-5-yl]-5-methylpiperidin-3-yl]-2-(3-hydroxyazetidin-1-yl)propanamide]", "IC50": "1000 to 10000"}, {"compound": "C[C@H]1C[C@@H](NC(=O)C2(O)CC2)CN(c2ccc(C(F)(F)F)c3ncccc23)C1", "note": "[Compound 241, 1-hydroxy-N-[(3R,5S)-5-methyl-1-[8-(trifluoromethyl)quinolin-5-yl]piperidin-3-yl]cyclopropane-1-carboxamide]", "IC50": "< 1000"}, {"compound": "CC(C(=O)N[C@@H]1C[C@H](C)CN(c2ccc(C(F)F)c3nccnc23)C1)N1CC(F)(F)C1", "note": "(stereo partly drawn) [Compound 323, 2-(3,3-difluoroazetidin-1-yl)-N-[(3R,5S)-1-[8-(difluoromethyl)quinoxalin-5-yl]-5-methylpiperidin-3-yl]propanamide]", "IC50": "1000 to 10000"}, {"compound": "C[C@H]1C[C@@H](NC(=O)C(N)C2CC2)CN(c2ccc(C#N)c3nccnc23)C1", "note": "(stereo partly drawn) [Compound 268, 2-amino-N-[(3R,5S)-1-(8-cyanoquinoxalin-5-yl)-5-methylpiperidin-3-yl]-2-cyclopropylacetamide]", "IC50": "< 1000"}, {"compound": "CN1CCC(CC(=O)NC2CN(c3ccc(C#N)c4nccnc34)CC(F)(F)C2)CC1", "note": "(single isomer, unassigned) [Compound 523]", "IC50": "< 1000"}, {"compound": "CCN1CCC(NC(=O)C2CN(c3ccc(C#N)c4ncccc34)CC(F)(F)C2)CC1", "note": "(centres unmarked) [Compound 532, 1-(8-Cyano-quinolin-5-yl)-5,5-difluoro-piperidine-3-carboxylic Acid (1-ethyl-piperidin-4-yl)-amide]", "IC50": "< 1000"}, {"compound": "C[C@H]1C[C@@H](NC(=O)CN2CCN(C)CC2)CN(c2ccc(C#N)c3nccnc23)C1", "note": "[Compound 109, N-[(3R,5S)-1-(8-cyanoquinoxalin-5-yl)-5-methylpiperidin-3-yl]-2-(4-methylpiperazin-1-yl)acetamide]", "IC50": "< 1000"}, {"compound": "Fc1ccc2nccc(N3CCC(CNCCN4CCCCC4)CC3)c2c1", "note": "[Compound 378, [1-(6-Fluoro-quinolin-4-yl)-piperidin-4-ylmethyl]-(2-piperidin-1-yl-ethyl)-amine]", "IC50": "1000 to 10000"}, {"compound": "CC(C)[C@H](O)C(=O)N[C@@H]1C[C@H](C)CN(c2ccc(C(F)F)c3ncccc23)C1", "note": "[Compound 204, (2S)—N-[(3R,5S)-1-[8-(difluoromethyl)quinolin-5-yl]-5-methylpiperidin-3-yl]-2-hydroxy-3-methylbutanamide]", "IC50": "< 1000"}, {"compound": "C[C@@H]1CN(c2ccnc3nccnc23)C[C@H](CN2CCN(C)C(C)(C)C2)O1", "note": "[Compound 54, (2R,6S)-2-methyl-4-(pyrido[2,3-b]pyrazin-8-yl)-6-((3,3,4-trimethylpiperazin-1-yl)methyl)morpholine]", "IC50": "< 1000"}, {"compound": "CN1CCC(CNC(=O)C2CN(c3ccc(C#N)c4ncccc34)CC(F)(F)C2)CC1", "note": "(single isomer, unassigned) [Compound 545]", "IC50": "1000 to 10000"}, {"compound": "CN1CCN(CC(=O)N[C@@H]2C[C@H](F)CN(c3ccc(C#N)c4nccnc34)C2)CC1", "note": "[Compound 502, N-[(3R,5S)-1-(8-Cyano-quinoxalin-5-yl)-5-fluoro-piperidin-3-yl]-2-(4-methyl-piperazin-1-yl)-acetamide]", "IC50": "1000 to 10000"}, {"compound": "Cc1ncc(N2C[C@@H](C)C[C@@H](NC(=O)[C@H](O)C3CC3)C2)c2cccnc12", "note": "[Compound 558, (R)-2-Cyclopropyl-2-hydroxy-N-[(3R,5S)-5-methyl-1-(8-methyl-[1,7]naphthyridin-5-yl)-piperidin-3-yl]-acetamide]", "IC50": "1000 to 10000"}, {"compound": "CN(C)CCNC(=O)N1CCN(c2ccc(C#N)c3nccnc23)CC1", "note": "[Compound 463, 4-(8-Cyano-quinoxalin-5-yl)-piperazine-1-carboxylic Acid (2-dimethylamino-ethyl)-amide]", "IC50": "< 1000"}, {"compound": "C[C@H]1C[C@@H](NC(=O)CN2CCC(C)(C)C2)CN(c2ccc(C(F)(F)F)c3ncccc23)C1", "note": "[Compound 573, 2-(3,3-Dimethyl-pyrrolidin-1-yl)-N-[(3R,5S)-5-methyl-1-(8-trifluoromethyl-quinolin-5-yl)-piperidin-3-yl]-acetamide]", "IC50": "< 1000"}, {"compound": "N#Cc1ccc(N2CC(NC(=O)CC3(O)CCCCC3)CC(C(F)(F)F)C2)c2cccnc12", "note": "(racemic) [Compound 491]", "IC50": "< 1000"}, {"compound": "C[C@H]1C[C@@H](NC(=O)CN2CCOCC2)CN(c2ccnc3nccnc23)C1", "note": "[Compound 110, N-[(3R,5S)-5-methyl-1-[pyrido[2,3-b]pyrazin-8-yl]piperidin-3-yl]-2-(morpholin-4-yl)acetamide]", "IC50": "> 10000"}, {"compound": "C[C@@H]1CN(c2ccnc3nccnc23)C[C@H](C)O1", "note": "[Compound 43, (2S,6R)-2,6-dimethyl-4-(pyrido[2,3-b]pyrazin-8-yl)morpholine]", "IC50": "> 10000"}, {"compound": "C[C@H]1C[C@@H](NC(=O)C(N)C2CC2)CN(c2ccc(C(F)F)c3ncccc23)C1", "note": "(stereo partly drawn) [Compound 306, 2-amino-2-cyclopropyl-N-[(3R,5S)-1-[8-(difluoromethyl)quinolin-5-yl]-5-methylpiperidin-3-yl]acetamide]", "IC50": "< 1000"}, {"compound": "CC(C)[C@@H](N)C(=O)N[C@@H]1C[C@H](C)CN(c2ccnc3nccnc23)C1", "note": "[Compound 104, (2R)-2-amino-3-methyl-N-[(3R,5S)-5-methyl-1-[pyrido[2,3-b]pyrazin-8-yl]piperidin-3-yl]butanamide]", "IC50": "> 10000"}, {"compound": "FC(F)(F)c1ccc2nccc(N3CCC(CNCCN4CCCCC4)CC3)c2c1", "note": "[Compound 387, (2-Piperidin-1-yl-ethyl)-[1-(6-trifluoromethyl-quinolin-4-yl)-piperidin-4-ylmethyl]-amine]", "IC50": "1000 to 10000"}, {"compound": "CCN(CC)CCNCC1CCN(c2ccnc3ccc(OC)cc23)CC1", "note": "[Compound 382, N,N-Diethyl-N′-[1-(6-methoxy-quinolin-4-yl)-piperidin-4-ylmethyl]-ethane-1,2-diamine]", "IC50": "1000 to 10000"}, {"compound": "CCN(CC)CCNCC1CCN(c2cc(C)nc3cc(F)ccc23)CC1", "note": "[Compound 386, N,N-Diethyl-N′-[1-(7-fluoro-2-methyl-quinolin-4-yl)-piperidin-4-ylmethyl]-ethane-1,2-diamine]", "IC50": "1000 to 10000"}, {"compound": "C[C@H]1C[C@@H](NC(=O)Cc2c[nH]cn2)CN(c2ccc(C#N)c3nccnc23)C1", "note": "[Compound 130, N-[(3R,5S)-1-(8-cyanoquinoxalin-5-yl)-5-methylpiperidin-3-yl]-2-(1H-imidazol-4-yl)acetamide hydrochloride]", "IC50": "< 1000"}, {"compound": "C[C@H]1C[C@@H](NC(=O)CN2CCOCC2)CN(c2ccc(Cl)c3ncccc23)C1", "note": "[Compound 262, N-[(3R,5S)-1-(8-chloroquinolin-5-yl)-5-methylpiperidin-3-yl]-2-(morpholin-4-yl)acetamide]", "IC50": "< 1000"}]}]}
